From patent publication US20100022491A1, “4-HYDROXY-2-OXO-2,3-DIHYDRO-1,3-BENZOTHIAZOL-7YL COMPOUNDS FOR MODULATION OF B2-ADRENORECEPTOR ACTIVITY” (ASTRAZENECA AB, priority 2006, published 2010)
Counter-ions that a name gives are not always drawn.

Tests used:
[1] = target: T1, recombinant human adrenergic beta 1 receptors (Homo sapiens, UniProt P08588); experiment: Adrenergic β1 selectivity binding assay ([125I]-Iodocyanopindolol); settings: inhibition of [125I]-Iodocyanopindolol (0.036 nM) binding; read-out: β1 bind p IC50 (converted)
T1 construct: purchased Euroscreen
Summary of the method: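 Displacement of [^125I]-Iodocyanopindolol (0.036 nM final) from human β1 receptor membranes, 2 hours at room temperature, pH 7.4 HEPES/EDTA/NaCl buffer. After filtration, scintillation counting; NSB set with 10 μM propranolol and subtracted. Four-parameter logistic fitting gave pIC50.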

[2] = target: T2, recombinant human Dopamine Subtype D2s receptors (Homo sapiens, UniProt P14416); experiment: Dopamine D2 selectivity binding assay ([3H]-spiperone); settings: inhibition of [3H]-spiperone (0.16 nM) binding; read-out: D2 bind pIC50 (converted)
T2 construct: purchased Perkin Elmer
Summary of the method: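 Displacement of [3H]-spiperone (0.16 nM final) from human D2s receptor membranes in pH 7.4 HEPES buffer over 2 h at room temperature, then filtration and scintillation counting. Specific binding taken as vehicle minus 10 μM haloperidol wells. Potency given as pIC50 from a four-parameter logistic curve.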

T2 sequence (P14416 1-414 isoform P14416-2): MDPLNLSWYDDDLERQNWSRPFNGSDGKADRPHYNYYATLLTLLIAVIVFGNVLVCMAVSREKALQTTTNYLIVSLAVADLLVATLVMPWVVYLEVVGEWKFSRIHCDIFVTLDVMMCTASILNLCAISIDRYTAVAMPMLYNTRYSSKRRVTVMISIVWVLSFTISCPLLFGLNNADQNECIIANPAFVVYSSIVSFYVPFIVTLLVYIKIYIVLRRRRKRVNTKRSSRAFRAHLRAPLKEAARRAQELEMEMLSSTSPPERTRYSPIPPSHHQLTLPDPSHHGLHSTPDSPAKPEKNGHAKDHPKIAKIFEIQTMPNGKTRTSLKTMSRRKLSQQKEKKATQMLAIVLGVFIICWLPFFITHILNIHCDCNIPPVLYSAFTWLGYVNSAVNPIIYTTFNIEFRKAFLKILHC
T1 sequence (P08588 whole entry): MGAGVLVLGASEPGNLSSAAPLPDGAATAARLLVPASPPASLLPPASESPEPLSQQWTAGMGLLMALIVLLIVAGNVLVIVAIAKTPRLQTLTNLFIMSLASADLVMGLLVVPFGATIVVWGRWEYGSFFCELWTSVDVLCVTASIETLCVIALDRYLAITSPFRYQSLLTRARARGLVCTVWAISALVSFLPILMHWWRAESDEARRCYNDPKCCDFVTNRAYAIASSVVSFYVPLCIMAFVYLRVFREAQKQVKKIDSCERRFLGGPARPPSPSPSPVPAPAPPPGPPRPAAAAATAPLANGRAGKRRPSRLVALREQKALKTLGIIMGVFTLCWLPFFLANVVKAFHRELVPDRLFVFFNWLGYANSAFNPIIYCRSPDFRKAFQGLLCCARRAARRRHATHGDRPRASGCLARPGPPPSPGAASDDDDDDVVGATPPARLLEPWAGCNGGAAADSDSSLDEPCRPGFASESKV

| SMILES | IC50 [1] | IC50 [2] |
| --- | --- | --- |
| Cc1cccc(CCNCCC(=O)N(CCNCCc2ccc(O)c3[nH]c(=O)sc23)C2CCCCCC2)c1 [Example 85, N^1-Cycloheptyl-N^1-(2-{[2-(4-hydroxy-2-oxo-2,3-dihydro-1,3-benzothiazol-7-yl)ethyl]amino}ethyl)-N^3-[2-(3-methylphenyl)ethyl]-β-alaninamide bis-trifluoroacetic acid salt] | 2510 nM | 79.4 nM |
| O=C(CCNCCc1ccc(O)c2[nH]c(=O)sc12)N(CCNCCc1ccc(O)c2[nH]c(=O)sc12)C1CCCCCC1 [Example 87, bis-trifluoroacetic acid salt] | 794 nM | 39.8 nM |
| O=C(CCNCCc1ccc(O)c(Cl)c1)N(CCNCCc1ccc(O)c2[nH]c(=O)sc12)C1CCCCC1 [Example 89, N^3-[2-(3-chloro-4-hydroxyphenyl)ethyl]-N^1-cyclohexyl-N^1-(2-{[2-(4-hydroxy-2-oxo-2,3-dihydro-1,3-benzothiazol-7-yl)ethyl]amino}ethyl)-β-alaninamide bis-trifluoroacetic acid salt] | 3160 nM | 79.4 nM |
| O=C(CCNCCc1ccccc1)N(CCNCCc1ccc(O)c2[nH]c(=O)sc12)C1CCCCC1 [Example 5, N-Cyclohexyl-N-(2-{[2-(4-hydroxy-2-oxo-2,3-dihydro-1,3-benzothiazol-7-yl)ethyl]amino}ethyl)-N^3-(2-phenylethyl)-β-alaninamide bis-trifluoroacetic acid salt] | 5010 nM | 398 nM |
| O=C(CCNCCc1ccccc1)N(CCNCCc1ccc(O)c2[nH]c(=O)sc12)C1CCC(F)(F)CC1 [Example 4, N-(4,4-Difluorocyclohexyl)-N-(2-{[2-(4-hydroxy-2-oxo-2,3-dihydro-1,3-benzothiazol-7-yl)ethyl]amino}ethyl)-N^3-(2-phenylethyl)-β-alaninamide bis-trifluoroacetic acid salt] | 2510 nM | 2000 nM |
| O=C(CCNCCc1cccc(O)c1)N(CCNCCc1ccc(O)c2[nH]c(=O)sc12)C1CCCCCCC1 [Example 90, N^1-Cyclooctyl-N^1-(2-{[2-(4-hydroxy-2-oxo-2,3-dihydro-1,3-benzothiazol-7-yl)ethyl]amino}ethyl)-N^3-[2-(3-hydroxyphenyl)ethyl]-β-alaninamide bis-trifluoroacetic acid salt] | 200 nM | 79.4 nM |
| CC1(C)CCC(N(CCNCCc2ccc(O)c3[nH]c(=O)sc23)C(=O)CCNCCc2cccc(O)c2)CC1 [Example 91, N^1-(4,4-Dimethylcyclohexyl)-N^1-(2-{[2-(4-hydroxy-2-oxo-2,3-dihydro-1,3-benzothiazol-7-yl)ethyl]amino}ethyl)-N^3-[2-(3-hydroxyphenyl)ethyl]-β-alaninamide bis-trifluoroacetic acid salt] | 3980 nM | 39.8 nM |
| O=C(CCNCCc1ccc2c(c1)OCCO2)N(CCNCCc1ccc(O)c2[nH]c(=O)sc12)C1CCCCCC1 [Example 88, N-Cycloheptyl-N^3-[2-(2,3-dihydro-1,4-benzodioxin-6-yl)ethyl]-N^1-(2-{[2-(4-hydroxy-2-oxo-2,3-dihydro-1,3-benzothiazol-7-yl)ethyl]amino}ethyl)-β-alaninamide bis-trifluoroacetic acid salt] | 6310 nM | 79.4 nM |
| COc1ccc(CCNCCC(=O)N(CCNCCc2ccc(O)c3[nH]c(=O)sc23)C2CCCCCC2)cc1OC [Example 86, N^1-Cycloheptyl-N^3-[2-(3,4-dimethoxyphenyl)ethyl]-N^1-(2-{[2-(4-hydroxy-2-oxo-2,3-dihydro-1,3-benzothiazol-7-yl)ethyl]amino}ethyl)-β-alaninamide bis-trifluoroacetic acid salt] | 2510 nM | 200 nM |
